The source of these data is patent US20160039676A1, “Fullerene Derivatives and Their Applications in Organic Photovoltaics” (Nano and Advanced Materials Institute Limited, priority 2014, published 2016).

Data set [1] can be described thus: Electrochemical properties (onset oxidation/reduction potentials, HOMO, LUMO, gap). It counts as physicochemical. More on the design: Eox / Ered: unit not given here. The following applies: for HOMO: HOMO = −e(Eox + 4.32); for Eg: HOMO-LUMO gap; for LUMO: LUMO = −e(Ered + 4.32); for Eox: onset oxidation potential; for Ered: onset reduction potential. The source says: The energy difference between HOMO and LUMO is also illustrated in FIG. 4. […] The compounds of formulae 1b-d have similar energy difference between HOMO and LUMO, meaning their potential energy levels are similar. Among the compounds of formulae 1a-d, it appears that the compound of formula 1a has the best potential energy suitable for being applied in organic photovoltaics; the compound of formula 1c is the second best.

Data set [2] is described as follows: Relative solubility in non-halogenated solvents, evaluated by visual observation. In kind it is physicochemical. The following applies: concentration 30 mg/mL. As to the method:
Each of the compounds is added into the test tubes containing five organic solvents at a concentration of 30 mg/mL.

As for `Cc1cccc(C)c1C(=O)OC12c3c4c5c6c7c8c(c9c%10c1c1c%11c3c3c%12c4c4c6c6c7c7c%13c8c9c8c9c%10c1c1c%10c%11c3c3c%11c%12c4c4c6c6c7c7c%13c8c8c9c1c1c%10c3c3c%11c4c6c4c7c8c1c34)C52O[Si](C)(C)C(C)(C)C` (stereo not drawn) [Formula 1d], in data set [1], the HOMO was −6.06 eV, the Eg worked out at 2.22 eV, the LUMO is −3.84 eV and the Eox was 1.74. The compound further displayed an Ered in data set [1] of −0.48. In addition, in data set [2], the “Relative solubility in diethyl ether” value is on record as “Insoluble”, the “Relative solubility in ethanol” value was “Insoluble” and the “Relative solubility in ethyl acetate” value is “Insoluble”. For the same compound, the “Relative solubility in tetrahydrofuran (THF)” value in data set [2] (THF) is given as “Insoluble”.

For the compound `Cc1cccc(C)c1C(=O)OC12c3c4c5c6c7c8c(c9c%10c1c1c%11c3c3c%12c4c4c6c6c7c7c%13c8c9c8c9c%10c1c1c%10c%11c3c3c%11c%12c4c4c6c6c7c7c%13c8c8c9c1c1c%10c3c3c%11c4c6c4c7c8c1c34)C52O[Si](C)(C)c1ccccc1` (stereo not drawn) [Formula 1a], in data set [1], the HOMO is on record as −6.08 eV, the Eg came out at 2.41 eV, the LUMO was −3.67 eV and the Eox amounted to 1.76. The same compound gave an Ered in data set [1] of −0.65. In data set [2], the “Relative solubility in diethyl ether” value is “Insoluble” and the “Relative solubility in toluene” value is listed as “Soluble”.

Consider `Cc1cccc(C)c1C(=O)OC12c3c4c5c6c7c8c(c9c%10c1c1c%11c3c3c%12c4c4c6c6c7c7c%13c8c9c8c9c%10c1c1c%10c%11c3c3c%11c%12c4c4c6c6c7c7c%13c8c8c9c1c1c%10c3c3c%11c4c6c4c7c8c1c34)C52OC[Si](C)(C)c1ccccc1` (stereo not drawn) [Formula 1b], for which, in data set [1], the HOMO was −6.03 eV, the Eg amounted to 2.25 eV, the LUMO was −3.78 eV and the Eox is listed as 1.71. In data set [1], this compound displayed an Ered of −0.54. Moreover, in data set [2], the “Relative solubility in diethyl ether” value is “Insoluble”, the “Relative solubility in ethanol” value is “Insoluble” and the “Relative solubility in ethyl acetate” value was “Insoluble”.

`CCCC[Si](C)(C)OC12c3c4c5c6c7c8c(c9c%10c1c1c%11c3c3c%12c4c4c6c6c7c7c%13c8c9c8c9c%10c1c1c%10c%11c3c3c%11c%12c4c4c6c6c7c7c%13c8c8c9c1c1c%10c3c3c%11c4c6c4c7c8c1c34)C52OC(=O)c1c(C)cccc1C` (stereo not drawn) [Formula 1c]: in data set [1], the HOMO is on record as −6.12 eV, the Eg was 2.29 eV, the LUMO is −3.83 eV and the Eox worked out at 1.80. Further, the Ered in data set [1] is recorded as −0.49. In addition, in data set [2], the “Relative solubility in diethyl ether” value is “Insoluble”, the “Relative solubility in ethanol” value is recorded as “Insoluble”, the “Relative solubility in ethyl acetate” value is “Insoluble” and the “Relative solubility in toluene” value is reported as “Soluble”.
